The structures appear in SMILES notation. Bounds are passed on as bounds.

In general, IC50 refers to the concentration that inhibits the measured activity by half.

Experiment [1] concerns HUH7 cells. Kind of experiment: Proliferation inhibitory effect for HUH7 cells (SRB assay). Format: cell-based. The note with it: Homo sapiens, Huh-7, 72 hours, GI50, read-out: IC50 HUH7 Cell Line. As to the method:
Test Example 2: Measuring Inhibitory Effect of FGFR Inhibitor Using Cell Line
The test was carried out for identifying a proliferation inhibitory effect of the compound of the present invention for HUH7 cells. HUH7 cell lines were counted and 5.0×10^3 cells were inoculated per well in a 96 well plate. After the innoculation, the cells were cultured for 24 hours in a 37 □ and 5% carbon dioxide (CO2) incubator. On the next day, the synthesized compounds were each diluted and prepared. The diluted compounds were introduced to the cell lines inoculated the previous day by concentrations, and reacted for 72 hours in a 37 □ and 5% carbon dioxide (CO2) incubator. However, to a positive control to which the compound was not added, 0.1% dimethyl sulfoxide (DMSO) diluted with a medium was introduced. To a negative control plate, a trichloroacetic acid (TCA) solution was introduced, and fixed at 4 □. After reacting for 72 hours, the medium including the compound was removed, a TCA solution was added thereto, and the cells were fixed for 30 minutes to 60 minutes at 4 □. The TCA solution was discarded, the plate was washed off with distilled water and then dried in the air. A 0.4% sulforhodamin B (SRB) solution was added to the plate and dyed for 10 minutes at room temperature. The plate was washed off with tap water including a 1% acetic acid solution, and then dried in the air. A 10 mM Trizma base solution was added to dissolve the solid SRB. Using a microplate reader, optical density (O.D. value) was measured at 540 nm. A GI50 value of each of the compounds was calculated using GraphPad Prism V6.0 Software.
Background: The SRB assay estimates cell density from bound dye.

For experiment [2], the target named is FGFR4 (Homo sapiens, UniProt P22455). Kind of experiment: Activity inhibition for FGFR4 kinase (Z′-LYTE biochemical assay, Invitrogen SelectScreen). The note with it: ATP concentration based on Km. The procedure:
(§1) For the synthesized compounds, inhibitory activity for FGFR1, 2, 3, 4 kinase was measured. Activity measurement was carried out by requesting to SelectScreen® Biochemical Kinase Profiling Service of Invitrogen. A Z′-LYTE® biochemical assay method was used, and the ATP concentration was set based on the Km value.

Experiment [3] concerns the target FGFR1 (Homo sapiens, UniProt P11362). Kind of experiment: Activity inhibition for FGFR1 kinase (Z′-LYTE biochemical assay, Invitrogen SelectScreen). The note with it: ATP concentration based on Km. As to the method:
as §1

Sequence of FGFR4 (P22455 22-802): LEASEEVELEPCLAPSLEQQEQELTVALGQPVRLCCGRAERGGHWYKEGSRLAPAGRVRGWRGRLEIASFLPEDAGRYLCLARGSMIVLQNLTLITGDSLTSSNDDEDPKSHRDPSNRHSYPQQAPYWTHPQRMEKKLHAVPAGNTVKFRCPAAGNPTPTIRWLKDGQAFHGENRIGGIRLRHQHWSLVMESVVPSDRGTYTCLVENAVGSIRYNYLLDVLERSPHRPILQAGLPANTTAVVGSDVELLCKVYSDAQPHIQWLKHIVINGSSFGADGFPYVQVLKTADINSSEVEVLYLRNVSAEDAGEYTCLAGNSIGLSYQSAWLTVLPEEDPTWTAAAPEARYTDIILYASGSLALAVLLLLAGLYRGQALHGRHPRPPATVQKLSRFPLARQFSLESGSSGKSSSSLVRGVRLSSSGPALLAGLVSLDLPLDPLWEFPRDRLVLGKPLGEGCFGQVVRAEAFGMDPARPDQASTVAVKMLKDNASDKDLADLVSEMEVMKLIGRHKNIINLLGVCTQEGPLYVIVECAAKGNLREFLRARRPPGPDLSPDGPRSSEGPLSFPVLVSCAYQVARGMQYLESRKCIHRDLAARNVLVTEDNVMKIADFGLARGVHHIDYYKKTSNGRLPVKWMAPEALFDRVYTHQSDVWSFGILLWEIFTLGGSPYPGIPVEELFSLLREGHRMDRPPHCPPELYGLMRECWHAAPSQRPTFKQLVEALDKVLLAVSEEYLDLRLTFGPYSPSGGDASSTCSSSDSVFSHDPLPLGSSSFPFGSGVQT
Sequence of FGFR1 (P11362 22-822): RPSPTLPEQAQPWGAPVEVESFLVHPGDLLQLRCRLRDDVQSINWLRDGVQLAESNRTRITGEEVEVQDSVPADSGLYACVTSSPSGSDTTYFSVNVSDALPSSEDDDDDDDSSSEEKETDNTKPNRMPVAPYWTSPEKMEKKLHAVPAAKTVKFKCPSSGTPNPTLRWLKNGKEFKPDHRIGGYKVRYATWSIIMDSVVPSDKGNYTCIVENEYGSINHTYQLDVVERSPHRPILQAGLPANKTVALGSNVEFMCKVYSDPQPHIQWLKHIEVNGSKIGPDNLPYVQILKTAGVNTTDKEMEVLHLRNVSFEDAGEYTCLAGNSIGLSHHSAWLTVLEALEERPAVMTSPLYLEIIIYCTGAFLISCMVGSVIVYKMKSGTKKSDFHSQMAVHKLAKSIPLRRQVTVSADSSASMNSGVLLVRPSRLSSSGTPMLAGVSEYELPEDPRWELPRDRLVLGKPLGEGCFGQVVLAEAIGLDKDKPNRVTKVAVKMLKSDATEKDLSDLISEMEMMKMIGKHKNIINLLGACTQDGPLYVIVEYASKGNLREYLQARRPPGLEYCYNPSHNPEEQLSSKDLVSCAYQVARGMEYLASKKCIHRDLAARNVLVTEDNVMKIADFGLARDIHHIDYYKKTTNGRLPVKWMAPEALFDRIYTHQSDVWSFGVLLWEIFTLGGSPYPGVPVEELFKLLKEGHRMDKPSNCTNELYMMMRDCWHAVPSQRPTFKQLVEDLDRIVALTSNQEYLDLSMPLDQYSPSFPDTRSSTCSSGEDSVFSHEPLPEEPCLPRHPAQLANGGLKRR

On to `C=CC(=O)Nc1cc(N2CCN(CC)CC2)ccc1Nc1ncc2cc(-c3c(Cl)c(OC)cc(OC)c3Cl)c3nccn3c2n1` [compound 31], for which the IC50 in experiment [1] and in experiment [2] was less than 50 nM in each case.
As for `C=CC(=O)Nc1cc(N2CCN(C)CC2)ccc1Nc1ncc2cc(-c3c(Cl)c(OC)cc(OC)c3Cl)c3nccn3c2n1` [compound 52], the IC50 in experiment [3], in experiment [1] and in experiment [2] was less than 50 nM throughout.
For the compound `C=CC(=O)Nc1cc(N2CC[C@H](N(C)C)C2)ccc1Nc1ncc2cc(-c3c(Cl)c(OC)cc(OC)c3Cl)c3nccn3c2n1` [compound 48], the IC50 in experiment [3], in experiment [1] and in experiment [2] was less than 50 nM in each case.
For `C=CC(=O)Nc1cc(N2CCS(=O)(=O)CC2)ccc1Nc1ncc2cc(-c3c(Cl)c(OC)cc(OC)c3Cl)c3nccn3c2n1` [compound 36], the IC50 in experiment [3], in experiment [1] and in experiment [2] was less than 50 nM each time.
Consider `C=CC(=O)N[C@H]1CCOC[C@H]1Nc1ncc2cc(-c3c(Cl)c(OC)cc(OC)c3Cl)c3nccn3c2n1` [Synthesis Example 4, N-((3S,4S)-3-((6-(2,6-dichloro-3,5-dimethoxyphenyl)imidazo[1′,2′:1,6]pyrido[2,3-d]pyrimidin-2-yl)amino)tetrahydro-2H-pyran-4-yl)acrylamide], for which the IC50 in experiment [1] is 50 to 500 nM.
On the same count and under the same terms, the figure for `C#Cc1ccc(Nc2ncc3cc(-c4c(Cl)c(OC)cc(OC)c4Cl)c4nccn4c3n2)c(NC(=O)C=C)c1` [compound 16] is 50 to 500 nM; for `C=CC(=O)Nc1cc(N2CCN(C(=O)C3CC3)CC2)ccc1Nc1ncc2cc(-c3c(Cl)c(OC)cc(OC)c3Cl)c3nccn3c2n1` [compound 42] it is less than 50 nM; for `C=CC(=O)Nc1cc(N2CCC(OC)C2)ccc1Nc1ncc2cc(-c3c(Cl)c(OC)cc(OC)c3Cl)c3nccn3c2n1` (stereo not shown) [compound 41] it is less than 50 nM.
Consider `C=CC(=O)Nc1cc(F)ccc1Nc1ncc2cc(-c3c(Cl)c(OC)cc(OC)c3Cl)c3nccn3c2n1` [compound 14], for which the concentration for half-maximal inhibition (IC50) in experiment [1] was 50 to 500 nM.
Same read-out and setting: the figure for `C=CC(=O)Nc1cc(OCCN(C)C)ccc1Nc1ncc2cc(-c3c(Cl)c(OC)cc(OC)c3Cl)c3nccn3c2n1` [compound 30] is less than 50 nM; for `C=CC(=O)Nc1cccnc1Nc1ncc2cc(-c3c(Cl)c(OC)cc(OC)c3Cl)c3nccn3c2n1` [compound 69] it is 50 to 500 nM; for `C=CC(=O)Nc1cn(C)nc1Nc1ncc2cc(-c3c(Cl)c(OC)cc(OC)c3Cl)c3nccn3c2n1` [compound 71] it is 50 to 500 nM.
Still for that read-out and setting: the figure for `C=CC(=O)Nc1cc(N2CCN(CC)CC2)cc(F)c1Nc1ncc2cc(-c3c(Cl)c(OC)cc(OC)c3Cl)c3nccn3c2n1` [compound 66] is greater than 500 nM.
Same read-out and setting: next, `C=CC(=O)Nc1cccc(C)c1Nc1ncc2cc(-c3cc(OC)cc(OC)c3)c3nccn3c2n1` [compound 8]: greater than 500 nM; `C=CC(=O)Nc1cc(N2CCOC(C)C2)ccc1Nc1ncc2cc(-c3c(Cl)c(OC)cc(OC)c3Cl)c3nccn3c2n1` (stereo not shown) [compound 49]: less than 50 nM.
`C=CC(=O)NC1COCC1Nc1ncc2cc(-c3c(Cl)c(OC)cc(OC)c3Cl)c3nccn3c2n1` (stereo not shown) [compound 3]: the IC50 in experiment [1] is 50 to 500 nM.
On to `C=CC(=O)Nc1cc(N2CC[C@H](OC)C2)ccc1Nc1ncc2cc(-c3c(Cl)c(OC)cc(OC)c3Cl)c3nccn3c2n1` [compound 44], for which the IC50 in experiment [1] was less than 50 nM.
On to `C=CC(=O)Nc1cc(F)cc(C)c1Nc1ncc2cc(-c3c(Cl)c(OC)cc(OC)c3Cl)c3nccn3c2n1` [compound 64], for which the IC50 in experiment [1] is greater than 500 nM.
As to `C=CC(=O)Nc1cc(OCC)ccc1Nc1ncc2cc(-c3c(Cl)c(OC)cc(OC)c3Cl)c3nccn3c2n1` [compound 27], the IC50 in experiment [1] was less than 50 nM.
`C=CC(=O)Nc1cc(C)ccc1Nc1ncc2cc(-c3c(Cl)c(OC)cc(OC)c3Cl)c3nccn3c2n1` [compound 19]: in experiment [1], the half-maximal inhibitory concentration (IC50) is less than 50 nM.
In the case of `C=CC(=O)Nc1cc(N2CCN(C3CC3)CC2)ccc1Nc1ncc2cc(-c3c(Cl)c(OC)cc(OC)c3Cl)c3nccn3c2n1` [compound 51], in experiment [1], the half-inhibitory concentration (IC50) lay in the range of 50 to 500 nM.
With `C=CC(=O)Nc1cc(C#N)ccc1Nc1ncc2cc(-c3c(Cl)c(OC)cc(OC)c3Cl)c3nccn3c2n1` [compound 17], the concentration for half-maximal inhibition (IC50) in experiment [1] is 50 to 500 nM.
Still for that read-out and setting: next, `C=CC(=O)NC1CCCC1Nc1ncc2cc(-c3c(Cl)c(OC)cc(OC)c3Cl)c3nccn3c2n1` (stereo not shown) [Synthesis Example 1, N-(2-((6-(2,6-dichloro-3,5-dimethoxyphenyl)imidazo[1′,2′:1,6]pyrido[2,3-d]pyrimidin-2-yl)amino)cyclopentyl)acrylamide]: 50 to 500 nM.
For `C=CC(=O)Nc1cc(N2CCOCC2)cc(OC)c1Nc1ncc2cc(-c3c(Cl)c(OC)cc(OC)c3Cl)c3nccn3c2n1` [compound 65], in experiment [1], the 50% inhibitory concentration (IC50) was in the range of 50 to 500 nM.
The same measure, in the same setting: next, `C=CC(=O)Nc1ccc(N2CCN(CC)CC2)cc1Nc1ncc2cc(-c3c(Cl)c(OC)cc(OC)c3Cl)c3nccn3c2n1` [compound 13]: less than 50 nM; `C=CC(=O)Nc1cc(OC(C)C)ccc1Nc1ncc2cc(-c3c(Cl)c(OC)cc(OC)c3Cl)c3nccn3c2n1` [compound 28]: less than 50 nM; `C=CC(=O)Nc1cc(N2CCN(CCOC)CC2)ccc1Nc1ncc2cc(-c3c(Cl)c(OC)cc(OC)c3Cl)c3nccn3c2n1` [compound 46]: less than 50 nM.
Still for that read-out and setting: next, `C=CC(=O)Nc1cc(N(C)C)ccc1Nc1ncc2cc(-c3c(Cl)c(OC)cc(OC)c3Cl)c3nccn3c2n1` [compound 24]: less than 50 nM; `C=CC(=O)NC1CCCCC1Nc1ncc2cc(-c3c(Cl)c(OC)cc(OC)c3Cl)c3nccn3c2n1` (stereo not shown) [compound 2]: 50 to 500 nM.
As for `C=CC(=O)Nc1cc(N2CCC(OC)CC2)ccc1Nc1ncc2cc(-c3c(Cl)c(OC)cc(OC)c3Cl)c3nccn3c2n1` [compound 40], the IC50 in experiment [1] was less than 50 nM.
With `C=CC(=O)Nc1cccc(Nc2ncc3cc(-c4c(Cl)c(OC)cc(OC)c4Cl)c4nccn4c3n2)c1` [compound 7], in experiment [1], the IC50 is less than 50 nM.
In the case of `C=CC(=O)Nc1cccc(Nc2ncc3cc(-c4c(F)c(OC)cc(OC)c4F)c4nccn4c3n2)c1` [compound 74], in experiment [1], the IC50 was less than 50 nM.
Take `C=CC(=O)Nc1cc2c(cc1Nc1ncc3cc(-c4c(Cl)c(OC)cc(OC)c4Cl)c4nccn4c3n1)CCC2` [compound 57]: in experiment [1], the concentration for half-maximal inhibition (IC50) lay within 50 to 500 nM.
On the same count and under the same terms, the figure for `C=CC(=O)Nc1ccccc1Nc1ncc2cc(-c3c(F)c(OC)cc(OC)c3F)c3nccn3c2n1` [compound 75] is less than 50 nM.
Turning to `C=CC(=O)Nc1cc(O[C@@H]2CCOC2)c(C)cc1Nc1ncc2cc(-c3c(Cl)c(OC)cc(OC)c3Cl)c3nccn3c2n1` [compound 60], the IC50 in experiment [1] is 50 to 500 nM.
On the same count and under the same terms, next, `COc1cc(OC)c(Cl)c(-c2cc3cnc(-c4cccc(N5CCOCC5)c4)nc3n3ccnc23)c1Cl` [Synthesis Example 80, 4-(3-(6-(2,6-dichloro-3,5-dimethoxyphenyl)imidazo[1′,2′:1,6]pyrido[2,3-d]pyrimidin-2-yl)phenyl)morpholine]: greater than 500 nM; `C=CC(=O)Nc1cc(-c2ncc3cc(-c4c(Cl)c(OC)cc(OC)c4Cl)c4nccn4c3n2)cc(N2CCOCC2)c1` [compound 82]: greater than 500 nM.
Still for that read-out and setting: the figure for `C=CC(=O)Nc1cc(N2CCC[C@H]2COC)ccc1Nc1ncc2cc(-c3c(Cl)c(OC)cc(OC)c3Cl)c3nccn3c2n1` [compound 50] is less than 50 nM; for `C=CC(=O)Nc1cc(F)c(F)cc1Nc1ncc2cc(-c3c(F)c(OC)cc(OC)c3F)c3nccn3c2n1` [compound 77] it is 50 to 500 nM.
The same measure, in the same setting: next, `C=CC(=O)Nc1cc(N2CC(O)C2)ccc1Nc1ncc2cc(-c3c(Cl)c(OC)cc(OC)c3Cl)c3nccn3c2n1` [compound 45]: less than 50 nM.
As for `C=CC(=O)Nc1cc(N2CCOCC2)cnc1Nc1ncc2cc(-c3c(Cl)c(OC)cc(OC)c3Cl)c3nccn3c2n1` [compound 70], the half-maximal inhibitory concentration (IC50) in experiment [1] lay within 50 to 500 nM.
On to `C=CC(=O)Nc1cc(O[C@@H]2CCOC2)ccc1Nc1ncc2cc(-c3c(Cl)c(OC)cc(OC)c3Cl)c3nccn3c2n1` [compound 53], for which the IC50 in experiment [1] and in experiment [2] was less than 50 nM throughout.
With `C=CC(=O)Nc1cc(N2CCOCC2)cnc1Nc1cc2c(cn1)cc(-c1c(Cl)c(OC)cc(OC)c1Cl)c1nccn12` [compound 86], the concentration for half-maximal inhibition (IC50) in experiment [1] was less than 50 nM.
On to `C=CC(=O)Nc1cc(N2CCOCC2)cc(Cl)c1Nc1ncc2cc(-c3c(Cl)c(OC)cc(OC)c3Cl)c3nccn3c2n1` [compound 68], for which the 50% inhibitory concentration (IC50) in experiment [1] was greater than 500 nM.
Still for that read-out and setting: the figure for `C=CC(=O)Nc1ccccc1Nc1ncc2cc(-c3c(Cl)c(OC)cc(OC)c3Cl)c3nccn3c2n1` [Synthesis Example 6, N-(2-((6-(2,6-dichloro-3,5-dimethoxyphenyl)imidazo[1′,2′:1,6]pyrido[2,3-d]pyrimidin-2-yl)amino)phenyl)acrylamide] is less than 50 nM.
Take `C=CC(=O)Nc1cc(N2CCOCC2)ccc1Nc1ncc2cc(-c3c(Cl)c(OC)cc(OC)c3Cl)c3nccn3c2n1` [compound 32]: the IC50 in experiment [1] and in experiment [2] was less than 50 nM each time.

The record behind these values is patent US10696675B2, “Imidazopyridopyrimidine derivative compound and use thereof” (HANMI PHARMACEUTICAL CO., LTD., priority 2016, dated 2020).
